Test results as given in ChEMBL document CHEMBL5506020 (J Med Chem, 2024).
Activity calls are given as the source filed them. The calls are words filed in the database; no cut-off is given here.

Tested on: MV4-11
Assay: Antiproliferative activity against human MV4-11 cells incubated for 120 hrs by Cell-Titer Glo assay
Settings: MV4-11, 120 h

| IC50 | SMILES |
| --- | --- |
| 1700 nM | Cc1noc(C)c1-c1ccc2c(c1)nc([C@@H]1CCCC(=O)N1c1ccc(F)c(F)c1)n2C1CCN(CC(=O)NCCOCCNc2ccc3c(c2)C(=O)N(C2CCC(=O)NC2=O)C3=O)CC1 (stereo partly specified) |
| 1800 nM | Cc1noc(C)c1-c1ccc2c(c1)nc([C@@H]1CCCC(=O)N1c1ccc(F)c(F)c1)n2C1CCN(CC(=O)NCCC#Cc2cccc3c2C(=O)N(C2CCC(=O)NC2=O)C3=O)CC1 (stereo partly specified) |
| 1680 nM | Cc1noc(C)c1-c1ccc2c(c1)nc([C@@H]1CCCC(=O)N1c1ccc(F)c(F)c1)n2C1CCN(CC(=O)NCCOCCOCCNc2cccc3c2C(=O)N(C2CCC(=O)NC2=O)C3=O)CC1 (stereo partly specified) |
| 112 nM | Cc1noc(C)c1-c1ccc2c(c1)nc([C@@H]1CCCC(=O)N1c1ccc(F)c(F)c1)n2C1CCN(CC(=O)N2CCC(N3CCC(Nc4cccc5c4C(=O)N(C4CCC(=O)NC4=O)C5=O)CC3)CC2)CC1 (stereo partly specified) |
| 980 nM | Cc1noc(C)c1-c1ccc2c(c1)nc([C@@H]1CCCC(=O)N1c1ccc(F)c(F)c1)n2C1CCN(CC(=O)NCC2CCN(c3cccc4c3C(=O)N(C3CCC(=O)NC3=O)C4=O)CC2)CC1 (stereo partly specified) |
| 223 nM | Cc1noc(C)c1-c1ccc2c(c1)nc([C@@H]1CCCC(=O)N1c1ccc(F)c(F)c1)n2C1CCN(CC(=O)N2CCN(CCNc3cccc4c3C(=O)N(C3CCC(=O)NC3=O)C4=O)CC2)CC1 (stereo partly specified) |
| 2640 nM | Cc1noc(C)c1-c1ccc2c(c1)nc([C@@H]1CCCC(=O)N1c1ccc(F)c(F)c1)n2C1CCN(CC(=O)NCCCNc2ccc3c(c2)C(=O)N(C2CCC(=O)NC2=O)C3=O)CC1 (stereo partly specified) |
| 30.1 nM | Cc1noc(C)c1-c1ccc2c(c1)nc([C@@H]1CCCC(=O)N1c1ccc(F)c(F)c1)n2C1CCN(CC(=O)Nc2ccc(C3CCN(c4cccc5c4C(=O)N(C4CCC(=O)NC4=O)C5=O)CC3)cc2)CC1 (stereo partly specified) |
| 405 nM | Cc1noc(C)c1-c1ccc2c(c1)nc([C@@H]1CCCC(=O)N1c1ccc(F)c(F)c1)n2C1CCN(CC(=O)NCCCCCCNc2cccc3c2C(=O)N(C2CCC(=O)NC2=O)C3=O)CC1 (stereo partly specified) |
| 606 nM | Cc1noc(C)c1-c1ccc2c(c1)nc([C@@H]1CCCC(=O)N1c1ccc(F)c(F)c1)n2C1CCN(CC(=O)NCCCCCCCCCCNc2cccc3c2C(=O)N(C2CCC(=O)NC2=O)C3=O)CC1 (stereo partly specified) |
| 1720 nM | Cc1noc(C)c1-c1ccc2c(c1)nc([C@@H]1CCCC(=O)N1c1ccc(F)c(F)c1)n2C1CCN(CC(=O)NCCCC#Cc2cccc3c2C(=O)N(C2CCC(=O)NC2=O)C3=O)CC1 (stereo partly specified) |
| 464 nM | Cc1noc(C)c1-c1ccc2c(c1)nc([C@@H]1CCCC(=O)N1c1ccc(F)c(F)c1)n2C1CCN(CC(=O)NCCCCCNc2cccc3c2C(=O)N(C2CCC(=O)NC2=O)C3=O)CC1 (stereo partly specified) |
| > 10000 nM | Cc1noc(C)c1-c1ccc2c(c1)nc([C@@H]1CCCC(=O)N1c1ccc(F)c(F)c1)n2C1CCN(CC(=O)NCCOCCOCCOCCNc2ccc3c(c2)C(=O)N(C2CCC(=O)NC2=O)C3=O)CC1 (stereo partly specified) |
| 1800 nM | Cc1noc(C)c1-c1ccc2c(c1)nc([C@@H]1CCCC(=O)N1c1ccc(F)c(F)c1)n2C1CCN(CC(=O)NCCNc2ccc3c(c2)C(=O)N(C2CCC(=O)NC2=O)C3=O)CC1 (stereo partly specified) |
| 1700 nM | Cc1noc(C)c1-c1ccc2c(c1)nc([C@@H]1CCCC(=O)N1c1ccc(F)c(F)c1)n2C1CCN(CC(=O)N2CCN(c3cccc4c3C(=O)N(C3CCC(=O)NC3=O)C4=O)CC2)CC1 (stereo partly specified) |
| 1170 nM | Cc1noc(C)c1-c1ccc2c(c1)nc([C@@H]1CCCC(=O)N1c1ccc(F)c(F)c1)n2C1CCN(CC(=O)NCCC2CCN(c3cccc4c3C(=O)N(C3CCC(=O)NC3=O)C4=O)CC2)CC1 (stereo partly specified) |

| IC50 | SMILES |
| --- | --- |
| 6060 nM | Cc1noc(C)c1-c1ccc2c(c1)nc([C@@H]1CCCC(=O)N1c1ccc(F)c(F)c1)n2C1CCN(CC(=O)NCCOCCOCCNc2ccc3c(c2)C(=O)N(C2CCC(=O)NC2=O)C3=O)CC1 (stereo partly specified) |
| 266 nM | Cc1noc(C)c1-c1ccc2c(c1)nc([C@@H]1CCCC(=O)N1c1ccc(F)c(F)c1)n2C1CCN(CC(=O)N2CCC(CN3CCN(c4cccc5c4C(=O)N(C4CCC(=O)NC4=O)C5=O)CC3)CC2)CC1 (stereo partly specified) |
| 84.8 nM | Cc1noc(C)c1-c1ccc2c(c1)nc([C@@H]1CCCC(=O)N1c1ccc(F)c(F)c1)n2C1CCN(CC(=O)Nc2ccc(CNc3cccc4c3C(=O)N(C3CCC(=O)NC3=O)C4=O)cc2)CC1 (stereo partly specified) |
| 1760 nM | Cc1noc(C)c1-c1ccc2c(c1)nc([C@@H]1CCCC(=O)N1c1ccc(F)c(F)c1)n2C1CCN(CC(=O)N2CCC(Nc3cccc4c3C(=O)N(C3C(=O)CCNC3=O)C4=O)CC2)CC1 (stereo partly specified) |
| 1020 nM | Cc1noc(C)c1-c1ccc2c(c1)nc([C@@H]1CCCC(=O)N1c1ccc(F)c(F)c1)n2C1CCN(CC(=O)NCCCCCCNc2ccc3c(c2)C(=O)N(C2CCC(=O)NC2=O)C3=O)CC1 (stereo partly specified) |
| 1010 nM | Cc1noc(C)c1-c1ccc2c(c1)nc([C@@H]1CCCC(=O)N1c1ccc(F)c(F)c1)n2C1CCN(CC(=O)NCCCCCNc2ccc3c(c2)C(=O)N(C2CCC(=O)NC2=O)C3=O)CC1 (stereo partly specified) |
| 525 nM | Cc1noc(C)c1-c1ccc2c(c1)nc([C@@H]1CCCC(=O)N1c1ccc(F)c(F)c1)n2C1CCN(CC(=O)NCCCCCCCNc2cccc3c2C(=O)N(C2CCC(=O)NC2=O)C3=O)CC1 (stereo partly specified) |
| 273 nM | Cc1noc(C)c1-c1ccc2c(c1)nc([C@@H]1CCCC(=O)N1c1ccc(F)c(F)c1)n2C1CCN(CC(=O)Nc2ccc(CC3CCN(c4cccc5c4C(=O)N(C4CCC(=O)NC4=O)C5=O)CC3)cc2)CC1 (stereo partly specified) |
| 1220 nM | Cc1noc(C)c1-c1ccc2c(c1)nc([C@@H]1CCCC(=O)N1c1ccc(F)c(F)c1)n2C1CCN(CC(=O)NCc2ccc(CNc3cccc4c3C(=O)N(C3CCC(=O)NC3=O)C4=O)cc2)CC1 (stereo partly specified) |
| 1140 nM | Cc1noc(C)c1-c1ccc2c(c1)nc([C@@H]1CCCC(=O)N1c1ccc(F)c(F)c1)n2C1CCN(CC(=O)NCC#Cc2cccc3c2C(=O)N(C2CCC(=O)NC2=O)C3=O)CC1 (stereo partly specified) |
| 2210 nM | Cc1noc(C)c1-c1ccc2c(c1)nc([C@@H]1CCCC(=O)N1c1ccc(F)c(F)c1)n2C1CCN(CC(=O)NCCCCNc2ccc3c(c2)C(=O)N(C2CCC(=O)NC2=O)C3=O)CC1 (stereo partly specified) |
| 165 nM | Cc1noc(C)c1-c1ccc2c(c1)nc([C@@H]1CCCC(=O)N1c1ccc(F)c(F)c1)n2C1CCN(C)CC1 |
| 2020 nM | Cc1noc(C)c1-c1ccc2c(c1)nc([C@@H]1CCCC(=O)N1c1ccc(F)c(F)c1)n2C1CCN(CC(=O)NCCOCCOCCOCCNc2cccc3c2C(=O)N(C2CCC(=O)NC2=O)C3=O)CC1 (stereo partly specified) |
| 132 nM | Cc1noc(C)c1-c1ccc2c(c1)nc([C@@H]1CCCC(=O)N1c1ccc(F)c(F)c1)n2C1CCN(CC(=O)Nc2ccc(CCNc3cccc4c3C(=O)N(C3CCC(=O)NC3=O)C4=O)cc2)CC1 (stereo partly specified) |
| 1900 nM | Cc1noc(C)c1-c1ccc2c(c1)nc([C@@H]1CCCC(=O)N1c1ccc(F)c(F)c1)n2C1CCN(CC(=O)NCCOCCNc2cccc3c2C(=O)N(C2CCC(=O)NC2=O)C3=O)CC1 (stereo partly specified) |
| 1740 nM | Cc1noc(C)c1-c1ccc2c(c1)nc([C@@H]1CCCC(=O)N1c1ccc(F)c(F)c1)n2C1CCN(CC(=O)NC2CCN(c3cccc4c3C(=O)N(C3CCC(=O)NC3=O)C4=O)CC2)CC1 (stereo partly specified) |

Molecular target: Protein cereblon/Histone acetyltransferase p300 (Homo sapiens) (UniProt Q09472+Q96SW2)
Sequence (Q09472 2-2414 limits assumed): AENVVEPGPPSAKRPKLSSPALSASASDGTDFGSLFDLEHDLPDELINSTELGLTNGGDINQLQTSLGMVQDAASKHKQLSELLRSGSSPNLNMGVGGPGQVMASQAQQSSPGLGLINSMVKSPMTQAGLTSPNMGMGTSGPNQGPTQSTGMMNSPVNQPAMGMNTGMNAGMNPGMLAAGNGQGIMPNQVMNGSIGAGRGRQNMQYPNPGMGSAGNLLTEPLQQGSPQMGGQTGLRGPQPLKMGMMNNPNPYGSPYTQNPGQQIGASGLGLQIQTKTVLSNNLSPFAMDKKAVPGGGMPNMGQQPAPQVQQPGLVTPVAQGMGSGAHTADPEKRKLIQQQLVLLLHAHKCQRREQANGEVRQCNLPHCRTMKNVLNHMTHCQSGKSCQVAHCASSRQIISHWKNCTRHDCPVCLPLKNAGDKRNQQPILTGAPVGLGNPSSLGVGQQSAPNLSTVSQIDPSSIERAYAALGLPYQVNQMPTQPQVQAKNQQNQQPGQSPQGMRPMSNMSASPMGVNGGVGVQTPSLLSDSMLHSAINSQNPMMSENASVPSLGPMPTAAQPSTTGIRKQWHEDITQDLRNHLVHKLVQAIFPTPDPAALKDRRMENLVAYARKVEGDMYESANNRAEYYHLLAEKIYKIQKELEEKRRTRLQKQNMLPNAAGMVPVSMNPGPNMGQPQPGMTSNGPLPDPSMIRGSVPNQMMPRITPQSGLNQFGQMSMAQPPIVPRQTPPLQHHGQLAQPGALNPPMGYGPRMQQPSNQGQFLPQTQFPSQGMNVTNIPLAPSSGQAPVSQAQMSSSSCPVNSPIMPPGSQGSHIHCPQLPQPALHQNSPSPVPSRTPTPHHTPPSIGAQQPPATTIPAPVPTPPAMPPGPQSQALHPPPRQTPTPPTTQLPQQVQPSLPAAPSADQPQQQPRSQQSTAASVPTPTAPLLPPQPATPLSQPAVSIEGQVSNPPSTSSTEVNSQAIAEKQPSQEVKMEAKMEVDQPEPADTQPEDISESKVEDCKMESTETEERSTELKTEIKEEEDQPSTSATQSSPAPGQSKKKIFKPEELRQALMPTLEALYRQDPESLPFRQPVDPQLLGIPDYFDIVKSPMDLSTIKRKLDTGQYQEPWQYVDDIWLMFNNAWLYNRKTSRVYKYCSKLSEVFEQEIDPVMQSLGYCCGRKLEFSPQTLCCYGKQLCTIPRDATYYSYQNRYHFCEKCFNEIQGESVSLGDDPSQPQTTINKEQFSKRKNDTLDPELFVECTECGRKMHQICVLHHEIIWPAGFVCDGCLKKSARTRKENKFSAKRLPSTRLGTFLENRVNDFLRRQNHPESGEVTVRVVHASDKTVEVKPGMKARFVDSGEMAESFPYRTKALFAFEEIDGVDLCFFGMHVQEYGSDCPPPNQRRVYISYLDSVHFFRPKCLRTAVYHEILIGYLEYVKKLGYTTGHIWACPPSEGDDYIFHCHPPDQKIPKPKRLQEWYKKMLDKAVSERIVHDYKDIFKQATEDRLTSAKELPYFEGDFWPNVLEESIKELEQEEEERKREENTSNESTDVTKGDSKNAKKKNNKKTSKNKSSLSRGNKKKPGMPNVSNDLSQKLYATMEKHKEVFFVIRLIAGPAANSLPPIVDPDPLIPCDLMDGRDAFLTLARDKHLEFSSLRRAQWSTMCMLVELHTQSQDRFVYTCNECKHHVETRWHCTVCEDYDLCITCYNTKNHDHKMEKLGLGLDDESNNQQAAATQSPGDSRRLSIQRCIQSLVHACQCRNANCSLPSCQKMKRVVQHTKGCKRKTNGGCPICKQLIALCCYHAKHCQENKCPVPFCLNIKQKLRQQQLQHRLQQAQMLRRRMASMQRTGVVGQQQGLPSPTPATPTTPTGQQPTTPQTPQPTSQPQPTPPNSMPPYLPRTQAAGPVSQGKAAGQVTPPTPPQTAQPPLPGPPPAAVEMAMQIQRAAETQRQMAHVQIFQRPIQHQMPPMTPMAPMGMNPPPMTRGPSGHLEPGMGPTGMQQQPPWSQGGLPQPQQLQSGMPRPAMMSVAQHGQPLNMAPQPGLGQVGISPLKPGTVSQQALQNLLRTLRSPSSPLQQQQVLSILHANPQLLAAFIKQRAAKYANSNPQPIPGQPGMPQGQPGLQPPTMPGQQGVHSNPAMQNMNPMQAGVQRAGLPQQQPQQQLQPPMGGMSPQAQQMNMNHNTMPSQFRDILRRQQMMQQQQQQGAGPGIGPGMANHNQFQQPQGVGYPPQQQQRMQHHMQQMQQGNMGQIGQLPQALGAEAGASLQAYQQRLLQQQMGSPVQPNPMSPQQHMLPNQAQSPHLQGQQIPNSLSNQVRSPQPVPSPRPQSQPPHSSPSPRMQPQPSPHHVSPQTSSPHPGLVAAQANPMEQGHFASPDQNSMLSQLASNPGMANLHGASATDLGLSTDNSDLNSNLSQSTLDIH
Sequence (Q96SW2 whole entry partner): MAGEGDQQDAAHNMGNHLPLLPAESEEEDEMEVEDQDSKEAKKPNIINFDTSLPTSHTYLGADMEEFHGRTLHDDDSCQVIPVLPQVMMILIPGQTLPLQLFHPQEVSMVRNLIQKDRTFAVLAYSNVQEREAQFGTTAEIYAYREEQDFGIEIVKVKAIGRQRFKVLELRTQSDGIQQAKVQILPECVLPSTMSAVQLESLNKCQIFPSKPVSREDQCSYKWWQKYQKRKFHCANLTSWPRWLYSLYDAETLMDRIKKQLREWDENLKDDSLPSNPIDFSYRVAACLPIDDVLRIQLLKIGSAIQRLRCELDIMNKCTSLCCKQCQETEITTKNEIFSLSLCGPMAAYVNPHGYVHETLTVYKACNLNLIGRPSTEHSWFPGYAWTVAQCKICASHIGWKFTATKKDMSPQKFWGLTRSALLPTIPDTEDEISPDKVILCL
Assay: PROTAC activity at CRBN/p300 in human MV4-11 cells assessed as p300 degradation at 10 to 50 nM incubated for 24 hrs by Western blotting analysis
Assay type: cell-based
Settings: dose 10-50 nM

| Activity | SMILES |
| --- | --- |
| inactive | Cc1noc(C)c1-c1ccc2c(c1)nc([C@@H]1CCCC(=O)N1c1ccc(F)c(F)c1)n2C1CCN(CC(=O)NCCOCCNc2ccc3c(c2)C(=O)N(C2CCC(=O)NC2=O)C3=O)CC1 (stereo partly specified) |
| inactive | Cc1noc(C)c1-c1ccc2c(c1)nc([C@@H]1CCCC(=O)N1c1ccc(F)c(F)c1)n2C1CCN(CC(=O)N2CCN(CCNc3cccc4c3C(=O)N(C3CCC(=O)NC3=O)C4=O)CC2)CC1 (stereo partly specified) |
| inactive | Cc1noc(C)c1-c1ccc2c(c1)nc([C@@H]1CCCC(=O)N1c1ccc(F)c(F)c1)n2C1CCN(CC(=O)NCCCNc2ccc3c(c2)C(=O)N(C2CCC(=O)NC2=O)C3=O)CC1 (stereo partly specified) |
| Active | Cc1noc(C)c1-c1ccc2c(c1)nc([C@@H]1CCCC(=O)N1c1ccc(F)c(F)c1)n2C1CCN(CC(=O)Nc2ccc(C3CCN(c4cccc5c4C(=O)N(C4CCC(=O)NC4=O)C5=O)CC3)cc2)CC1 (stereo partly specified) |
| Active | Cc1noc(C)c1-c1ccc2c(c1)nc([C@@H]1CCCC(=O)N1c1ccc(F)c(F)c1)n2C1CCN(CC(=O)NCCCCCCNc2cccc3c2C(=O)N(C2CCC(=O)NC2=O)C3=O)CC1 (stereo partly specified) |
| Active | Cc1noc(C)c1-c1ccc2c(c1)nc([C@@H]1CCCC(=O)N1c1ccc(F)c(F)c1)n2C1CCN(CC(=O)NCCCCCCCCCCNc2cccc3c2C(=O)N(C2CCC(=O)NC2=O)C3=O)CC1 (stereo partly specified) |
| Active | Cc1noc(C)c1-c1ccc2c(c1)nc([C@@H]1CCCC(=O)N1c1ccc(F)c(F)c1)n2C1CCN(CC(=O)NCCCCCNc2cccc3c2C(=O)N(C2CCC(=O)NC2=O)C3=O)CC1 (stereo partly specified) |
| inactive | Cc1noc(C)c1-c1ccc2c(c1)nc([C@@H]1CCCC(=O)N1c1ccc(F)c(F)c1)n2C1CCN(CC(=O)NCCOCCOCCOCCNc2ccc3c(c2)C(=O)N(C2CCC(=O)NC2=O)C3=O)CC1 (stereo partly specified) |
| inactive | Cc1noc(C)c1-c1ccc2c(c1)nc([C@@H]1CCCC(=O)N1c1ccc(F)c(F)c1)n2C1CCN(CC(=O)NCCNc2ccc3c(c2)C(=O)N(C2CCC(=O)NC2=O)C3=O)CC1 (stereo partly specified) |
| inactive | Cc1noc(C)c1-c1ccc2c(c1)nc([C@@H]1CCCC(=O)N1c1ccc(F)c(F)c1)n2C1CCN(CC(=O)NCCOCCOCCNc2ccc3c(c2)C(=O)N(C2CCC(=O)NC2=O)C3=O)CC1 (stereo partly specified) |
| inactive | Cc1noc(C)c1-c1ccc2c(c1)nc([C@@H]1CCCC(=O)N1c1ccc(F)c(F)c1)n2C1CCN(CC(=O)N2CCC(CN3CCN(c4cccc5c4C(=O)N(C4CCC(=O)NC4=O)C5=O)CC3)CC2)CC1 (stereo partly specified) |
| Active | Cc1noc(C)c1-c1ccc2c(c1)nc([C@@H]1CCCC(=O)N1c1ccc(F)c(F)c1)n2C1CCN(CC(=O)Nc2ccc(CNc3cccc4c3C(=O)N(C3CCC(=O)NC3=O)C4=O)cc2)CC1 (stereo partly specified) |
| inactive | Cc1noc(C)c1-c1ccc2c(c1)nc([C@@H]1CCCC(=O)N1c1ccc(F)c(F)c1)n2C1CCN(CC(=O)NCCCCCCNc2ccc3c(c2)C(=O)N(C2CCC(=O)NC2=O)C3=O)CC1 (stereo partly specified) |
| inactive | Cc1noc(C)c1-c1ccc2c(c1)nc([C@@H]1CCCC(=O)N1c1ccc(F)c(F)c1)n2C1CCN(CC(=O)NCCCCCNc2ccc3c(c2)C(=O)N(C2CCC(=O)NC2=O)C3=O)CC1 (stereo partly specified) |
| Active | Cc1noc(C)c1-c1ccc2c(c1)nc([C@@H]1CCCC(=O)N1c1ccc(F)c(F)c1)n2C1CCN(CC(=O)NCCCCCCCNc2cccc3c2C(=O)N(C2CCC(=O)NC2=O)C3=O)CC1 (stereo partly specified) |
| Active | Cc1noc(C)c1-c1ccc2c(c1)nc([C@@H]1CCCC(=O)N1c1ccc(F)c(F)c1)n2C1CCN(CC(=O)Nc2ccc(CC3CCN(c4cccc5c4C(=O)N(C4CCC(=O)NC4=O)C5=O)CC3)cc2)CC1 (stereo partly specified) |
| Active | Cc1noc(C)c1-c1ccc2c(c1)nc([C@@H]1CCCC(=O)N1c1ccc(F)c(F)c1)n2C1CCN(CC(=O)NCc2ccc(CNc3cccc4c3C(=O)N(C3CCC(=O)NC3=O)C4=O)cc2)CC1 (stereo partly specified) |
| inactive | Cc1noc(C)c1-c1ccc2c(c1)nc([C@@H]1CCCC(=O)N1c1ccc(F)c(F)c1)n2C1CCN(CC(=O)NCCCCNc2ccc3c(c2)C(=O)N(C2CCC(=O)NC2=O)C3=O)CC1 (stereo partly specified) |
| Active | Cc1noc(C)c1-c1ccc2c(c1)nc([C@@H]1CCCC(=O)N1c1ccc(F)c(F)c1)n2C1CCN(CC(=O)Nc2ccc(CCNc3cccc4c3C(=O)N(C3CCC(=O)NC3=O)C4=O)cc2)CC1 (stereo partly specified) |
